The values below come from US11613527B2, “Enzyme inhibitors” (KalVista Pharmaceuticals Limited, priority 2019, dated 2023).

Common to all, as to assay type: biochemical
In one assay the target is Human plasma kallikrein (Homo sapiens (Human), UniProt P03952). Kind of assay: Determination of the IC50 for plasma kallikrein (fluorogenic substrate H-DPro-Phe-Arg-AFC). Conditions: class symbols A-D, read-out: IC50 (human PKal). On the procedure: The ability of the compounds of formula (I) to inhibit plasma kallikrein may be determined using the following biological assay:
Determination of the IC50 for Plasma Kallikrein
Plasma kallikrein inhibitory activity in vitro was determined using standard published methods (see e.g. Johansen et al., Int. J. Tiss. Reac. 1986, 8, 185; Shori et al., Biochem. Pharmacol., 1992, 43, 1209; Sturzebecher et al., Biol. Chem. Hoppe-Seyler, 1992, 373, 1025). Human plasma kallikrein (Protogen) was incubated at 25° C. with the fluorogenic substrate H-DPro-Phe-Arg-AFC and various concentrations of the test compound. Residual enzyme activity (initial rate of reaction) was determined by measuring the change in optical absorbance at 410 nm and the IC50 value for the test compound was determined.

The target of the next assay is Human KLK1 (Homo sapiens (Human), UniProt P06870). Kind of assay: Determination of the IC50 for KLK1 (fluorogenic substrate H-DVal-Leu-Arg-AFC). On the procedure:
Selected compounds were further screened for inhibitory activity against the related enzyme KLK1. The ability of the compounds of formula (I) to inhibit KLK1 may be determined using the following biological assay:
Determination of the IC50 for KLK1
KLK1 inhibitory activity in vitro was determined using standard published methods (see e.g. Johansen et al., Int. J. Tiss. Reac. 1986, 8, 185; Shori et al., Biochem. Pharmacol., 1992, 43, 1209; Sturzebecher et al., Biol. Chem. Hoppe-Seyler, 1992, 373, 1025). Human KLK1 (Callbiochem) was incubated at 25° C. with the fluorogenic substrate H-DVal-Leu-Arg-AFC and various concentrations of the test compound. Residual enzyme activity (initial rate of reaction) was determined by measuring the change in optical absorbance at 410 nm and the IC50 value for the test compound was determined.

A further assay deals with Human FXIa (Homo sapiens (Human), UniProt P03951). Kind of assay: Determination of the % inhibition for FXIa (fluorogenic substrate Z-Gly-Pro-Arg-AFC; 40 μM or IC50). On the procedure:
Selected compounds were further screened for inhibitory activity against the related enzyme FXIa. The ability of the compounds of formula (I) to inhibit FXIa may be determined using the following biological assay:
Determination of the % Inhibition for FXIa
FXIa inhibitory activity in vitro was determined using standard published methods (see e.g. Johansen et al., Int. J. Tiss. Reac. 1986, 8, 185; Shori et al., Biochem. Pharmacol., 1992, 43, 1209; Sturzebecher et al., Biol. Chem. Hoppe-Seyler, 1992, 373, 1025). Human FXIa (Enzyme Research Laboratories) was incubated at 25° C. with the fluorogenic substrate Z-Gly-Pro-Arg-AFC and 40 μM of the test compound (or alternatively at various concentrations of the test compound in order to determine IC50). Residual enzyme activity (initial rate of reaction) was determined by measuring the change in optical absorbance at 410 nm and the IC50 value for the test compound was determined.

Sequence of Human FXIa (P03951 388-625): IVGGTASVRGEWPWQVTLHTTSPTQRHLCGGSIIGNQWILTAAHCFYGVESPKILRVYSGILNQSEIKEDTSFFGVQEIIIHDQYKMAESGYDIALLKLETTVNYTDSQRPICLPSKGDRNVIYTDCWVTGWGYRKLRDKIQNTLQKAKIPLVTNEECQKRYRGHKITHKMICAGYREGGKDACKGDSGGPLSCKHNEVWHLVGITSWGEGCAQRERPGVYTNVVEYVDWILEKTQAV
Sequence of Human FXIa (P03951 19-387 partner): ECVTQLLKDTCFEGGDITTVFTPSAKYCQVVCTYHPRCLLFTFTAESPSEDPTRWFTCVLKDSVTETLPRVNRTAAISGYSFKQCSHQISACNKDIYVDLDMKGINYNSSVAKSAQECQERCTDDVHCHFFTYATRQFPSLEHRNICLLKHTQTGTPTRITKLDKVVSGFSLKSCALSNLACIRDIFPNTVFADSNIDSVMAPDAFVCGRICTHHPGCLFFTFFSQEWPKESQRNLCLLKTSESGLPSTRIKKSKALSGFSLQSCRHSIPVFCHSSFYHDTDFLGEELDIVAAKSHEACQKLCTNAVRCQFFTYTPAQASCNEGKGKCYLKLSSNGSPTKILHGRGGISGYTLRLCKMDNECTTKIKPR
Sequence of Human KLK1 (P06870 25-262): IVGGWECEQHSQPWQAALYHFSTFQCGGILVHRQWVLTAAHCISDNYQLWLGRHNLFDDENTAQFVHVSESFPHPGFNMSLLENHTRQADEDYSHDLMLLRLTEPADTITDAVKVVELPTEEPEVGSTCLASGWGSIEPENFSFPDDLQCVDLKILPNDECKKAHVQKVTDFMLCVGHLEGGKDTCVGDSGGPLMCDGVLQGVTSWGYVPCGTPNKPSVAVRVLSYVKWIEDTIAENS
Sequence of Human plasma kallikrein (P03952 391-638): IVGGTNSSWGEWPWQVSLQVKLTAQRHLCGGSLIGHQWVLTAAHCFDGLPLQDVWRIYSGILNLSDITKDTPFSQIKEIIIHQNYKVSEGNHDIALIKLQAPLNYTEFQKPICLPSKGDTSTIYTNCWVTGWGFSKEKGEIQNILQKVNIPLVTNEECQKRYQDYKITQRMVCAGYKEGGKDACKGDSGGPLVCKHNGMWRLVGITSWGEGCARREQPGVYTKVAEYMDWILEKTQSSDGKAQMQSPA
Sequence of Human plasma kallikrein (P03952 20-390 partner): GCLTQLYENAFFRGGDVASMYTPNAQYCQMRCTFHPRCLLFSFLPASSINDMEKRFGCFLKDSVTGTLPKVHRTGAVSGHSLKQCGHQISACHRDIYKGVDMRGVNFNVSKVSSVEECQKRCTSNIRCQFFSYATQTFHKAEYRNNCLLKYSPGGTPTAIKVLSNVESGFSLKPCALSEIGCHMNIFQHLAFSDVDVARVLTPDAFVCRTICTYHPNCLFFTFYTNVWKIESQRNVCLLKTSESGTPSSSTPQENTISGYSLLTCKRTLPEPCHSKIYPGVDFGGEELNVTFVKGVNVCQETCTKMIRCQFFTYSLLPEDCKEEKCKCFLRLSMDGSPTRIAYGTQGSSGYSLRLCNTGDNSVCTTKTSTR

As for `COCc1nn(Cc2cc3n(n2)CCN(C)C3)cc1C(=O)NCc1c(-n2cc(C)nn2)ccc(OC)c1F` [Example 70, N-{[2-fluoro-3-methoxy-6-(4-methyl-1,2,3-triazol-1-yl)phenyl]methyl}-3-(methoxymethyl)-1-({5-methyl-4H,6H,7H-pyrazolo[1,5-a]pyrazin-2-yl}methyl)pyrazole-4-carboxamide], the IC50 on Human plasma kallikrein is 0.01 to 0.03 µM; against Human KLK1, above 40 µM; at Human FXIa, above 40 µM.

Take `COCc1nn(Cc2ccc3c(c2)CN(C2CC2)CC3)cc1C(=O)NCc1c(-n2cnc(C(F)(F)F)n2)ccc(OC)c1F` [Example 20, 1-[(2-cyclopropyl-3,4-dihydro-1H-isoquinolin-7-yl)methyl]-N-({2-fluoro-3-methoxy-6-[3-(trifluoromethyl)-1,2,4-triazol-1-yl]phenyl}methyl)-3-(methoxymethyl)pyrazole-4-carboxamide]: the figures for the IC50 at Human plasma kallikrein, on Human KLK1 and against Human FXIa were 0.01 to 0.03 µM, above 40 µM and above 40 µM, respectively.

Take `COCc1nn(Cc2cnc3c(c2Cl)CCN(C)C3)cc1C(=O)NCc1c(-n2cc(C)nn2)ccc(OC)c1F` [Example 64, 1-[(4-chloro-7-methyl-6,8-dihydro-5H-1,7-naphthyridin-3-yl)methyl]-N-{[2-fluoro-3-methoxy-6-(4-methyl-1,2,3-triazol-1-yl)phenyl]methyl}-3-(methoxymethyl)pyrazole-4-carboxamide]: the IC50 at Human plasma kallikrein is 0.03 to 0.1 µM; against Human KLK1, above 40 µM; at Human FXIa it was above 40 µM.

As to `COCc1nn(Cc2ccc3c(c2)C2CCC3N2C(C)C)cc1C(=O)NCc1c(-n2cc(C)nn2)ccc(OC)c1F` (stereo not drawn) [Example 123, N-{[2-fluoro-3-methoxy-6-(4-methyl-1,2,3-triazol-1-yl)phenyl]methyl}-1-({11-isopropyl-11-azatricyclo[6.2.1.0^{2,7}]undeca-2(7),3,5-trien-4-yl}methyl)-3-(methoxymethyl)pyrazole-4-carboxamide], the results for the IC50 at Human plasma kallikrein, on Human KLK1 and on Human FXIa were 0.03 to 0.1 µM, above 40 µM and above 40 µM, respectively.

On to `COCc1nn(Cc2ccc3c(c2)CCN(C)C3=O)cc1C(=O)NCc1c(-n2cc(C)nn2)ccc(OC)c1F` [Example 135, N-{[2-fluoro-3-methoxy-6-(4-methyl-1,2,3-triazol-1-yl)phenyl]methyl}-3-(methoxymethyl)-1-[(2-methyl-1-oxo-3,4-dihydroisoquinolin-6-yl)methyl]pyrazole-4-carboxamide], for which the IC50 is 0.01 to 0.03 µM on Human plasma kallikrein, above 40 µM on Human KLK1 and 16.3 µM at Human FXIa.

For `COCc1nn(Cc2ccc3c(c2)CN(C(C)C)C3)cc1C(=O)NCc1c(-n2cnc(C(F)F)n2)ccc(OC)c1F` [Example 59, N-({6-[3-(difluoromethyl)-1,2,4-triazol-1-yl]-2-fluoro-3-methoxyphenyl}methyl)-1-[(2-isopropyl-1,3-dihydroisoindol-5-yl)methyl]-3-(methoxymethyl)pyrazole-4-carboxamide], the IC50 on Human plasma kallikrein is below 0.01 µM; against Human KLK1, above 40 µM; against Human FXIa, above 40 µM.

Take `COCc1nn(Cc2ccc3c(c2F)CCN(C)C3)cc1C(=O)NCc1c(-n2cc(C)nn2)ccc(OC)c1F` [Example 114, 1-[(5-fluoro-2-methyl-3,4-dihydro-1H-isoquinolin-6-yl)methyl]-N-{[2-fluoro-3-methoxy-6-(4-methyl-1,2,3-triazol-1-yl)phenyl]methyl}-3-(methoxymethyl)pyrazole-4-carboxamide]: the IC50 on Human plasma kallikrein is 0.01 to 0.03 µM; against Human KLK1 it was above 40 µM; against Human FXIa, above 40 µM.

On to `COCc1nn(Cc2ccc3c(c2)CN(C)CC3(F)F)cc1C(=O)NCc1c(-n2cc(C)nn2)ccc(OC)c1F` [Example 106, 1-[(4,4-difluoro-2-methyl-1,3-dihydroisoquinolin-7-yl)methyl]-N-{[2-fluoro-3-methoxy-6-(4-methyl-1,2,3-triazol-1-yl)phenyl]methyl}-3-(methoxymethyl)pyrazole-4-carboxamide], for which the IC50 was below 0.01 µM on Human plasma kallikrein, above 40 µM against Human KLK1 and 23.1 µM on Human FXIa.

As for `COCc1nn(Cc2ccc3c(c2)C(F)(F)CN(C)C3)cc1C(=O)NCc1c(-n2cc(C)nn2)ccc(OC)c1F` [Example 105, 1-[(4,4-difluoro-2-methyl-1,3-dihydroisoquinolin-6-yl)methyl]-N-{[2-fluoro-3-methoxy-6-(4-methyl-1,2,3-triazol-1-yl)phenyl]methyl}-3-(methoxymethyl)pyrazole-4-carboxamide], the IC50 at Human plasma kallikrein was below 0.01 µM; on Human KLK1, above 40 µM; against Human FXIa, 30 µM.

For the compound `COCc1nn(Cc2ccc3c(c2)CN(C)CC3(C)C)cc1C(=O)NCc1c(-n2cc(C)nn2)ccc(OC)c1F` [Example 134, N-{[2-fluoro-3-methoxy-6-(4-methyl-1,2,3-triazol-1-yl)phenyl]methyl}-3-(methoxymethyl)-1-[(2,4,4-trimethyl-1,3-dihydroisoquinolin-7-yl)methyl]pyrazole-4-carboxamide], the half-inhibitory concentration (IC50) on Human plasma kallikrein was 0.01 to 0.03 µM; against Human KLK1 it was above 40 µM; against Human FXIa, above 40 µM.

Take `CCN1CCc2ccc(Cn3cc(C(=O)NCc4c(-n5cc(C)nn5)ccc(OC)c4F)c(COC)n3)cc2C1` [Example 16, 1-[(2-ethyl-3,4-dihydro-1H-isoquinolin-7-yl)methyl]-N-{[2-fluoro-3-methoxy-6-(4-methyl-1,2,3-triazol-1-yl)phenyl]methyl}-3-(methoxymethyl)pyrazole-4-carboxamide]: the IC50 was below 0.01 µM at Human plasma kallikrein, above 40 µM against Human KLK1 and above 40 µM against Human FXIa.

For `COCc1nn(Cc2ccc3c(c2)C(C)(C)N(C)C3)cc1C(=O)NCc1c(-n2cc(C)nn2)ccc(OC)c1F` [Example 124, N-{[2-fluoro-3-methoxy-6-(4-methyl-1,2,3-triazol-1-yl)phenyl]methyl}-3-(methoxymethyl)-1-[(2,3,3-trimethyl-1H-isoindol-5-yl)methyl]pyrazole-4-carboxamide], the IC50 at Human plasma kallikrein was 0.03 to 0.1 µM; on Human KLK1, above 40 µM; against Human FXIa, above 40 µM.

As to `COCc1nn(Cc2ccc3c(c2)CN(C2CCC2)CC3)cc1C(=O)NCc1c(-n2cc(C)nn2)ccc(OC)c1F` [Example 18, 1-((2-cyclobutyl-1,2,3,4-tetrahydroisoquinolin-7-yl)methyl)-N-(2-fluoro-3-methoxy-6-(4-methyl-1H-1,2,3-triazol-1-yl)benzyl)-3-(methoxymethyl)-1H-pyrazole-4-carboxamide], the values for the IC50 at Human plasma kallikrein, at Human KLK1 and against Human FXIa were below 0.01 µM, above 40 µM and above 40 µM, respectively.

With `COCc1nn(Cc2ccc3c(c2)CN(C2CC2)CC3)cc1C(=O)NCc1c(-n2cc(C)nn2)ccc(OC)c1F` [Example 14, 1-[(2-cyclopropyl-3,4-dihydro-1H-isoquinolin-7-yl)methyl]-N-{[2-fluoro-3-methoxy-6-(4-methyl-1,2,3-triazol-1-yl)phenyl]methyl}-3-(methoxymethyl)pyrazole-4-carboxamide], the IC50 on Human plasma kallikrein is below 0.01 µM; against Human KLK1, above 40 µM; against Human FXIa it was 28.1 µM.

Regarding `COCc1nn(Cc2cnc3c(c2)CCN(CC(F)F)C3)cc1C(=O)NCc1c(-n2cc(C)nn2)ccc(OC)c1F` [Example 115, 1-{[7-(2,2-difluoroethyl)-6,8-dihydro-5H-1,7-naphthyridin-3-yl]methyl}-N-{[2-fluoro-3-methoxy-6-(4-methyl-1,2,3-triazol-1-yl)phenyl]methyl}-3-(methoxymethyl)pyrazole-4-carboxamide], the IC50 is 0.01 to 0.03 µM on Human plasma kallikrein, above 4 µM against Human KLK1 and above 4 µM against Human FXIa.

The term IC50 denotes the concentration needed to halve the response being measured.
